Laboratory results taken from article PMC10648852, “Molecular drivers of resistance to sulbactam-durlobactam in contemporary clinical isolates of Acinetobacter baumannii” (Antimicrobial Agents and Chemotherapy, 2023).
Like-named read-outs stand apart in the source and are kept apart here.

Legend:
Experiment in all cases: microbe, parasite or virus in culture
[1] = test system: ABC clinical isolates with SUL-DUR MIC > 4 µg/mL; format: cell-based, Acinetobacter baumannii-calcoaceticus complex
Procedure, shortened: (§1)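 Broth microdilution MICs following CLSI methods, interpreted with CLSI breakpoints where available. Sulbactam tested as twofold dilutions combined with fixed 4 µg/mL durlobactam.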

[2] = test system: A. nosocomialis clinical isolate; format: cell-based; settings: Acinetobacter nosocomialis, isolate ARC7023 (IHMA 2118812), France, BSI, 2019, read-out: MIC
Procedure, shortened: as §1

[3] = test system: A. baumannii clinical isolates; format: cell-based; settings: Acinetobacter baumannii
Procedure, shortened: as §1

[4] = test system: A. pittii clinical isolates; format: cell-based; settings: Acinetobacter pittii
Procedure, shortened: as §1

With `C[C@@H](O)[C@H]1C(=O)N2C(C(=O)O)=C(SCCN=CN)C[C@H]12` [imipenem] the “%NS (% non-susceptibility)” value ([1]; 64 non-clonal ABC isolates, 2023 CLSI breakpoints plus FDA breakpoint of 4 µg/mL for SUL-DUR) was 100%, the MIC50 ([1]; Acinetobacter) was over 64 µg/mL and the MIC90 ([1]; Acinetobacter) was over 64 µg/mL. For the same compound, the MIC ([1]; Acinetobacter, read-out: MIC Max) was over 64 µg/mL, the MIC ([1]; Acinetobacter, read-out: MIC Min) was 16 µg/mL and the MIC [2] was 64 µg/mL. It also gave an MIC ([3]; isolate ARC6644 (IHMA 1420327), Mexico, UTI, 2016, read-out: MIC) of 16 µg/mL, an MIC ([3]; isolate ARC6645 (IHMA 1435703), France, UTI, 2016, read-out: MIC) of over 64 µg/mL and an MIC ([3]; isolate ARC6646 (IHMA 1484127), United States, RTI, 2016, read-out: MIC) of 64 µg/mL. It also gave an MIC ([3]; isolate ARC6647 (IHMA 1386786), Argentina, RTI, 2016, read-out: MIC) of over 64 µg/mL, an MIC ([3]; isolate ARC6648 (IHMA 1407634), Spain, RTI, 2016, read-out: MIC) of over 64 µg/mL and an MIC ([3]; isolate ARC6650 (IHMA 1457337), Argentina, RTI, 2016, read-out: MIC) of 32 µg/mL. The MIC ([3]; isolate ARC6652 (IHMA 1465642), Belgium, RTI, 2016, read-out: MIC) was 64 µg/mL, the MIC ([3]; isolate ARC6653 (IHMA 1308777), Vietnam, RTI, 2016, read-out: MIC) was 64 µg/mL and the MIC ([3]; isolate ARC6799 (IHMA 1562935), Spain, UTI, 2017, read-out: MIC) was 64 µg/mL. It also gave an MIC ([3]; isolate ARC6800 (IHMA 1557526), Turkey, RTI, 2017, read-out: MIC) of 64 µg/mL, an MIC ([3]; isolate ARC6801 (IHMA 1662094), Thailand, RTI, 2017, read-out: MIC) of over 64 µg/mL and an MIC ([3]; isolate ARC6802 (IHMA 1557073), Spain, UTI, 2017, read-out: MIC) of 64 µg/mL. The MIC ([3]; isolate ARC6803 (IHMA 1589408), Belgium, UTI, 2017, read-out: MIC) was 64 µg/mL, the MIC ([3]; isolate ARC6805 (IHMA 1558650), United States, RTI, 2017, read-out: MIC) was 32 µg/mL and the MIC ([3]; isolate ARC6808 (IHMA 1557168), Spain, RTI, 2017, read-out: MIC) was 64 µg/mL. The MIC ([3]; isolate ARC6809 (IHMA 1699528), Guatemala, RTI, 2017, read-out: MIC) was over 64 µg/mL, the MIC ([3]; isolate ARC6810 (IHMA 1699548), Guatemala, RTI, 2017, read-out: MIC) was over 64 µg/mL and the MIC ([3]; isolate ARC6812 (IHMA 1699530), Guatemala, RTI, 2017, read-out: MIC) was 64 µg/mL. The MIC ([3]; isolate ARC6813 (IHMA 1699543), Guatemala, UTI, 2017, read-out: MIC) was over 64 µg/mL, the MIC ([3]; isolate ARC6814 (IHMA 1699512), Guatemala, RTI, 2017, read-out: MIC) was over 64 µg/mL and the MIC ([3]; isolate ARC6815 (IHMA 1699513), Guatemala, RTI, 2017, read-out: MIC) was over 64 µg/mL. The MIC ([3]; isolate ARC6816 (IHMA 1699521), Guatemala, RTI, 2017, read-out: MIC) was over 64 µg/mL, the MIC ([3]; isolate ARC6817 (IHMA 1699523), Guatemala, RTI, 2017, read-out: MIC) was over 64 µg/mL and the MIC ([3]; isolate ARC6818 (IHMA 1683261), Thailand, RTI, 2017, read-out: MIC) was over 64 µg/mL. It also gave an MIC ([3]; isolate ARC6819 (IHMA 1683267), Thailand, RTI, 2017, read-out: MIC) of over 64 µg/mL, an MIC ([3]; isolate ARC6820 (IHMA 1647876), Argentina, RTI, 2017, read-out: MIC) of 64 µg/mL and an MIC ([3]; isolate ARC6821 (IHMA 1699517), Guatemala, RTI, 2017, read-out: MIC) of over 64 µg/mL. It also gave an MIC ([3]; isolate ARC6822 (IHMA 1637626), Guatemala, RTI, 2017, read-out: MIC) of 64 µg/mL, an MIC ([3]; isolate ARC6823 (IHMA 1620872), Greece, SSSI, 2017, read-out: MIC) of 64 µg/mL and an MIC ([3]; isolate ARC6824 (IHMA 1625487), Argentina, BSI, 2017, read-out: MIC) of 64 µg/mL. It also gave an MIC ([3]; isolate ARC6937 (IHMA 1562926), Spain, UTI, 2017, read-out: MIC) of 64 µg/mL, an MIC ([3]; isolate ARC6950 (IHMA 1820064), Israel, RTI, 2018, read-out: MIC) of over 64 µg/mL and an MIC ([3]; isolate ARC6953 (IHMA 1909827), Turkey, IAI, 2018, read-out: MIC) of 64 µg/mL. It also gave an MIC ([3]; isolate ARC6954 (IHMA 1838192), Guatemala, SSSI, 2018, read-out: MIC) of over 64 µg/mL, an MIC ([3]; isolate ARC6955 (IHMA 1825425), United States, RTI, 2018, read-out: MIC) of 64 µg/mL and an MIC ([3]; isolate ARC7008 (IHMA 2009813), Thailand, BSI, 2019, read-out: MIC) of over 64 µg/mL. It also gave an MIC ([3]; isolate ARC7009 (IHMA 2043611), United States, UTI, 2019, read-out: MIC) of over 64 µg/mL, an MIC ([3]; isolate ARC7010 (IHMA 2043398), United States, RTI, 2019, read-out: MIC) of over 64 µg/mL and an MIC ([3]; isolate ARC7011 (IHMA 2104553), Germany, RTI, 2019, read-out: MIC) of over 64 µg/mL. For the same compound, the MIC ([3]; isolate ARC7012 (IHMA 2010001), Thailand, RTI, 2019, read-out: MIC) was over 64 µg/mL, the MIC ([3]; isolate ARC7013 (IHMA 1962831), Argentina, RTI, 2019, read-out: MIC) was over 64 µg/mL and the MIC ([3]; isolate ARC7014 (IHMA 2045328), Guatemala, IAI, 2019, read-out: MIC) was 64 µg/mL. The MIC ([3]; isolate ARC7015 (IHMA 2045327), Guatemala, UTI, 2019, read-out: MIC) was 64 µg/mL, the MIC ([3]; isolate ARC7016 (IHMA 2148441), Brazil, BSI, 2019, read-out: MIC) was over 64 µg/mL and the MIC ([3]; isolate ARC7017 (IHMA 2148446), Brazil, BSI, 2019, read-out: MIC) was over 64 µg/mL. It also gave an MIC ([3]; isolate ARC7018 (IHMA 2045454), Guatemala, IAI, 2019, read-out: MIC) of over 64 µg/mL, an MIC ([3]; isolate ARC7019 (IHMA 2114463), Thailand, RTI, 2019, read-out: MIC) of over 64 µg/mL and an MIC ([3]; isolate ARC7020 (IHMA 2045326), Guatemala, RTI, 2019, read-out: MIC) of 64 µg/mL. For the same compound, the MIC ([3]; isolate ARC7021 (IHMA 1966347), Guatemala, RTI, 2019, read-out: MIC) was 64 µg/mL, the MIC ([3]; isolate ARC7022 (IHMA 2045319), Guatemala, IAI, 2019, read-out: MIC) was 64 µg/mL and the MIC ([3]; isolate ARC7024 (IHMA 2059448), Turkey, RTI, 2019, read-out: MIC) was 64 µg/mL. The MIC ([3]; isolate ARC7025 (IHMA 2002121), Spain, RTI, 2019, read-out: MIC) was 64 µg/mL, the MIC ([3]; isolate ARC7026 (IHMA 2104494), Guatemala, BSI, 2019, read-out: MIC) was over 64 µg/mL and the MIC ([3]; isolate ARC7082 (IHMA 2160640), Belgium, BSI, 2020, read-out: MIC) was over 64 µg/mL. It also gave an MIC ([3]; isolate ARC7083 (IHMA 2163687), United States, RTI, 2020, read-out: MIC) of 64 µg/mL, an MIC ([3]; isolate ARC7084 (IHMA 2189596), Germany, RTI, 2020, read-out: MIC) of over 64 µg/mL and an MIC ([3]; isolate ARC7085 (IHMA 2205747), Guatemala, IAI, 2020, read-out: MIC) of over 64 µg/mL. It also gave an MIC ([3]; isolate ARC7086 (IHMA 2207563), Israel, RTI, 2020, read-out: MIC) of over 64 µg/mL, an MIC ([3]; isolate ARC7088 (IHMA 2215554), Turkey, BSI, 2020, read-out: MIC) of over 64 µg/mL and an MIC ([3]; isolate ARC7089 (IHMA 2240345), Argentina, BSI, 2020, read-out: MIC) of 64 µg/mL. It also gave an MIC ([3]; isolate ARC7090 (IHMA 2244410), Poland, RTI, 2020, read-out: MIC) of over 64 µg/mL, an MIC ([3]; isolate ARC7091 (IHMA 2244564), Australia, RTI, 2020, read-out: MIC) of over 64 µg/mL and an MIC ([3]; isolate ARC7092 (IHMA 2258772), United States, BSI, 2020, read-out: MIC) of over 64 µg/mL. The MIC ([3]; isolate ARC7093 (IHMA 2258783), United States, RTI, 2020, read-out: MIC) was over 64 µg/mL, the MIC ([3]; isolate ARC7094 (IHMA 2296423), Turkey, RTI, 2020, read-out: MIC) was 64 µg/mL and the MIC ([3]; isolate ARC7095 (IHMA 2320843), Turkey, BSI, 2020, read-out: MIC) was 64 µg/mL. It also gave an MIC ([3]; isolate ARC7156 (IHMA 2455450), Greece, RTI, 2021, read-out: MIC) of over 64 µg/mL, an MIC ([3]; isolate ARC7158 (IHMA 2523738), Italy, BSI, 2021, read-out: MIC) of over 64 µg/mL and an MIC ([3]; isolate ARC7159 (IHMA 2456229), Malaysia, RTI, 2021, read-out: MIC) of over 64 µg/mL. For the same compound, the MIC ([3]; isolate ARC7160 (IHMA 2458626), Thailand, RTI, 2021, read-out: MIC) was over 64 µg/mL, the MIC ([3]; isolate ARC7161 (IHMA 2429252), Ukraine, RTI, 2021, read-out: MIC) was over 64 µg/mL and the MIC ([3]; isolate ARC7162 (IHMA 2411847), United States, BSI, 2021, read-out: MIC) was over 64 µg/mL. The MIC ([3]; isolate ARC7163 (IHMA 2477704), United States, BSI, 2021, read-out: MIC) was over 64 µg/mL, the MIC ([4]; isolate ARC6949 (IHMA 1898982), Romania, RTI, 2018, read-out: MIC) was over 64 µg/mL and the MIC ([4]; isolate ARC6951 (IHMA 1776233), Philippines, RTI, 2018, read-out: MIC) was over 64 µg/mL. For the same compound, the MIC ([4]; isolate ARC6952 (IHMA 1899008), Romania, RTI, 2018, read-out: MIC) was over 64 µg/mL and the MIC ([4]; isolate ARC7087 (IHMA 2212062), Colombia, BSI, 2020, read-out: MIC) was 64 µg/mL.
